ChEMBL document CHEMBL1133398, “Mechanism-based inactivation of thymidylate synthase by 5-(3-fluoropropyn-1-yl)-2'-deoxyuridine 5'-phosphate” (Bioorg Med Chem Lett, 2000)
pKi: −log10 of the molar value.

Assays:
[1] = Half life was determined; assay type: ADME; details: rat
Thymidylate synthase = biological target: T1, Thymidylate synthase (Lactobacillus casei, UniProt P00469); assay: The compound was evaluated for the binding affinity against Lactobacillus casei dTMP synthase using spectrophotometric assay; set-up: species or system Lacticaseibacillus casei
T1 sequence (P00469 whole entry): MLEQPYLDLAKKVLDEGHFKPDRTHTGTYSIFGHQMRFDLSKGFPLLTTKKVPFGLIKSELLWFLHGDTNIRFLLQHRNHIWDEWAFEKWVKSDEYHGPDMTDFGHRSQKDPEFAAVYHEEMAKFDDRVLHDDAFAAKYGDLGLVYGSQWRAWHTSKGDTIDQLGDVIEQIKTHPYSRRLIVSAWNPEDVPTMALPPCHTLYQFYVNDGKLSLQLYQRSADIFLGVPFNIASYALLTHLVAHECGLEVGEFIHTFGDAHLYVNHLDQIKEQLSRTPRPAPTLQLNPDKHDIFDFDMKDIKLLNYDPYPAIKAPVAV

O=c1[nH]c(=O)n([C@H]2C[C@H](O)[C@@H](COP(=O)(O)O)O2)cc1C#CCF
half-life [1]: < 1 min | pKi (Thymidylate synthase): 7.83
